Experiments:
ROS1-G2032R = biological target: T1, ROS1-G2032R (Homo sapiens, UniProt P08922, G2032R); experiment: Biochemical kinase assay, ROS1-G2032R kinase domain; settings: apparent inhibitory constant, Morrison equation; ATP 2 mM in substrate solution; read-out: ROS1-G2032R Ki^app
T1 construct: purchased SignalChem R14-12BG
Protocol: (§1) First, 250 nL of compound dissolved in DMSO (100-fold of the desired concentration) was dispensed into a 384-well plate. A 12.5 μL substrate solution containing ATP (2 mM) and fluorogenic phosphorylation substrate AQT0101 (26 μM for ALK and ROS1, AssayQuant) or AQT0104 (26 μM for TRKA, AssayQuant) in buffer (50 mM HEPES pH 7.5, 0.01% Brij-35, 0.5 mM EGTA, 10 mM MgCl2) was added and mixed thoroughly. […] The plate was sealed and read by SpectraMax Paradigm at λ=485 nm every 2 minutes for 120 minutes at 30° C. Initial rates of reaction (v) were calculated from the change in fluorescence intensity over time during the initial, linear portion of the reaction. Finally, apparent inhibitory constants (Ki^app) were determined from regression of v and I (inhibitor concentration) to Morrison Equation (E=enzyme concentration): […]

[1] = biological target: T2, Ba/F3 cells EML4-ALK L1196M/G1202R (variant 1) (Homo sapiens, UniProt Q9UM73, G1202R/L1196M); experiment: Ba/F3 cell proliferation assay, EML4-ALK L1196M/G1202R (variant 1); assay type: cell-based; settings: 72 hours, CellTiter-Glo
T2 construct: echinoderm microtubule-associated protein-like 4 (EML4) gene and the ALK tyrosine kinase domain; host or cells: Ba/F3 (RIKEN), retroviral pMSCV-puro; the other entry of the earlier key: EML4 (Q9HC35, Echinoderm microtubule-associated protein-like 4)
T2 sequence (Q9UM73 with tags, fused parts or gaps L1196M/G1202R): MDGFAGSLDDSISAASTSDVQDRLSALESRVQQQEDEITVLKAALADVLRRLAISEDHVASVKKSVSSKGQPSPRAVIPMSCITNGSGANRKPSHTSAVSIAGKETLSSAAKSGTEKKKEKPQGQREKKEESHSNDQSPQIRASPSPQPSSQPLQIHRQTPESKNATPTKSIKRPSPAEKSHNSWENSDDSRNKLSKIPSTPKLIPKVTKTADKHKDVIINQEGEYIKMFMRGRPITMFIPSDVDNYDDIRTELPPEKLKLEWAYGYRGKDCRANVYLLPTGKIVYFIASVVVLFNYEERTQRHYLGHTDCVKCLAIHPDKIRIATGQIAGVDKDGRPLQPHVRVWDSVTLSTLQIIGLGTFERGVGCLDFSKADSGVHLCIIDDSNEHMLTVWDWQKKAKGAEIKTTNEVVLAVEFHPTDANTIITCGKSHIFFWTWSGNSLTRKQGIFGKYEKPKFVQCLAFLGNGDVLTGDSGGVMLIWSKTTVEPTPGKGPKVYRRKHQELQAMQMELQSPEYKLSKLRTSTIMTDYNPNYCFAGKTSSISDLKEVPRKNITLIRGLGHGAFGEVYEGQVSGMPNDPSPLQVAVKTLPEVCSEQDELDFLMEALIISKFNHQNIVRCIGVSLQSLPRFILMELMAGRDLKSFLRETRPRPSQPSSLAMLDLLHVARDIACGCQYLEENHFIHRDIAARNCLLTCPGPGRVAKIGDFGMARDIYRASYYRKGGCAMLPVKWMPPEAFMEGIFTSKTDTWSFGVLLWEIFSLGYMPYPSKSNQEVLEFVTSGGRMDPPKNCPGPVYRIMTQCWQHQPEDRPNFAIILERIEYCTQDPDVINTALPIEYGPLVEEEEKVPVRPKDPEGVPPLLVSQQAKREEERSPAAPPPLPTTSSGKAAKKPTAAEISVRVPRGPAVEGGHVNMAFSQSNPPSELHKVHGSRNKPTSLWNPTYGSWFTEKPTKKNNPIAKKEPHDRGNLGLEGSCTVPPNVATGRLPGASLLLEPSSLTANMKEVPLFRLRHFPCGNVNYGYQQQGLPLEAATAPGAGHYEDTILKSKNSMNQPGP
From the text: (§2) Genes encoding CD74-ROS1 wild-type (wt), CD74-ROS1 G2032R, CD74-ROS1 S1986F, CD74-ROS1 L2026M, CD74-ROS1 D2033N, EML4-ALK wt (variant 1), EML4-ALK G1202R (variant 1), EML4-ALK L1196M/G1202R (variant 1), EML4-ALK G1202R/G1269A (variant 1), EML4-ALK G1202R/L1198F (variant 1), and TPM3-TRKA were synthesized at GeneRay, cloned into the retroviral construct pMSCV-puro (Biovector), and packaged into retroviral particles. The virus was used to infect Ba/F3 cells (RIKEN) at multiplicity of infection=1 for 1 day. Infected cells were rescued in media (RPMI-1640 with 10% fetal bovine serum and 1% streptomycin and penicillin) supplemented with mouse IL-3 (10 ng/mL) for 2 days, and stable cell lines were selected by IL-3 withdrawal and puromycin (0.8 μg/mL) for 7 days. Monoclones were selected by single-cell dilution in IL-3-free medium containing puromycin (0.8 μg/mL). Transformation of desired genes was confirmed by Sanger sequencing and western blot using the following antibodies: ROS1 (CST #3287), ALK (CST #3633), and pan-TRK (Abcam #76291).
(§3) Cell Proliferation Assay Stable cells were plated at 1,000 cells/well (40 μL) in a 384-well plate for 1 day.
(§4) Test compounds (40 nL) were then added in a 3-fold dilution series using the TECAN EVO200 liquid handler and incubated for 72 hours. Plates were equilibrated at room temperature for 15 minutes followed by addition of 40 μL CellTiter-Glo reagent (Promega).
(§5) Luminescence was measured on a plate reader. Half-maximal inhibitory concentration (IC50) was calculated from percent inhibition and inhibitor concentration using four-parameter logistic regression. […] (nd=not determined).

ALK L1196M/G1202R = biological target: T3, ALK L1196M/G1202R (Homo sapiens, UniProt Q9UM73, G1202R/L1196M); experiment: Biochemical kinase assay, ALK L1196M/G1202R kinase domain; settings: apparent inhibitory constant, Morrison equation; ATP 2 mM in substrate solution; read-out: ALK-L1196M-G1202R Ki^app
T3 construct: purchased SignalChem A19-12NG
T3 sequence (Q9UM73 1116-1392 L1196M/G1202R limits assumed): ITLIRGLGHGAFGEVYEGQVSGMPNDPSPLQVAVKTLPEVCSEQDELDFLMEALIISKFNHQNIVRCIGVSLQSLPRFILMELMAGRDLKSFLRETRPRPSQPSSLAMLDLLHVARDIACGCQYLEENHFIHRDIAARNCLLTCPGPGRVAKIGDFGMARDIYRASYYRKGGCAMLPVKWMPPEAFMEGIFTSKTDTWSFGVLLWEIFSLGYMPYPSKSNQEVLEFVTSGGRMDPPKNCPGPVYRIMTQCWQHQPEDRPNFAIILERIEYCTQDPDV
Protocol: (§6) First, 250 nL of compound dissolved in DMSO (100-fold of the desired concentration) was dispensed into a 384-well plate. A 12.5 μL substrate solution containing ATP (2 mM) and fluorogenic phosphorylation substrate AQT0101 (26 μM for ALK and ROS1, AssayQuant) or AQT0104 (26 μM for TRKA, AssayQuant) in buffer (50 mM HEPES pH 7.5, 0.01% Brij-35, 0.5 mM EGTA, 10 mM MgCl2) was added and mixed thoroughly. Then, a 12.5 μL kinase solution containing ALK-wt (1.5 nM, Carna, 08-518), ALK ALK L1196M/G1202R (3 nM, SignalChem, A19-12NG), ROS1-wt (0.6 nM, Carna, 08-163), ROS1-G2032R (0.5 nM, SignalChem, R14-12BG), or TRKA-wt (1 nM, BPS Bio, 40280) kinase domains in buffer ([…] HEPES pH 7.5, 0.01% Brij-35, 2% glycerol, 0.4 mg/mL BSA, 0.5 mM EGTA, and 10 mM MgCl2) was added and mixed thoroughly. The plate was sealed and read by SpectraMax Paradigm at λ=485 nm every 2 minutes for 120 minutes at 30° C. Initial rates of reaction (v) were calculated from the change in fluorescence intensity over time during the initial, linear portion of the reaction. Finally, apparent inhibitory constants (Ki^app) were determined from regression of v and I (inhibitor concentration) to Morrison Equation (E=enzyme concentration): […]

[2] = biological target: T4, Ba/F3 cells CD74-ROS1 G2032R (Homo sapiens, UniProt P08922, G2032R); experiment: Ba/F3 cell proliferation assay, CD74-ROS1 G2032R; assay type: cell-based; settings: 72 hours, CellTiter-Glo
T4 construct: fusion of the C-terminus of ROS1 with the N-terminus of various partner proteins; host or cells: Ba/F3 (RIKEN), retroviral pMSCV-puro; the other entry of the earlier key: CD74 (P04233, HLA class II histocompatibility antigen gamma chain)
T4 sequence (P08922 1883-2347 G2032R limits assumed): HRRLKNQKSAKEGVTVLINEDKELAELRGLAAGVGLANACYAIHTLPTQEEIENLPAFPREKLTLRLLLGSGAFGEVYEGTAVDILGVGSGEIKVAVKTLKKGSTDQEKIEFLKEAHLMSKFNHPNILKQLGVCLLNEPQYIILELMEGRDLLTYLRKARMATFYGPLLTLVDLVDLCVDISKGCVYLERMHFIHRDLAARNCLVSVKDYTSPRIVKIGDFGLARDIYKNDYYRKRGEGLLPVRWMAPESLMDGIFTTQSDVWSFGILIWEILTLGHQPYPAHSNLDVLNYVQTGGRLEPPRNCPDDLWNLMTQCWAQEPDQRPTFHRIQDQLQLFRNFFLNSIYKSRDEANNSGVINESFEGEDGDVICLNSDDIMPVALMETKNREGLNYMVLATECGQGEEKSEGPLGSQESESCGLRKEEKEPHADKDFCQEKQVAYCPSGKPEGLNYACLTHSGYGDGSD
Protocol: (§7) The virus was used to infect Ba/F3 cells (RIKEN) at multiplicity of infection=1 for 1 day. Infected cells were rescued in media (RPMI-1640 with 10% fetal bovine serum and 1% streptomycin and penicillin) supplemented with mouse IL-3 (10 ng/mL) for 2 days, and stable cell lines were selected by IL-3 withdrawal and puromycin (0.8 μg/mL) for 7 days. Monoclones were selected by single-cell dilution in IL-3-free medium containing puromycin (0.8 μg/mL).
as §3, §4, §5

ROS1-wt = biological target: T5, ROS1-wt (Homo sapiens, UniProt P08922); experiment: Biochemical kinase assay, ROS1-wt kinase domain; settings: apparent inhibitory constant, Morrison equation; ATP 2 mM in substrate solution; read-out: ROS1-wt Ki^app
T5 construct: purchased Carna 08-163
T5 sequence (P08922 1945-2222 limits assumed): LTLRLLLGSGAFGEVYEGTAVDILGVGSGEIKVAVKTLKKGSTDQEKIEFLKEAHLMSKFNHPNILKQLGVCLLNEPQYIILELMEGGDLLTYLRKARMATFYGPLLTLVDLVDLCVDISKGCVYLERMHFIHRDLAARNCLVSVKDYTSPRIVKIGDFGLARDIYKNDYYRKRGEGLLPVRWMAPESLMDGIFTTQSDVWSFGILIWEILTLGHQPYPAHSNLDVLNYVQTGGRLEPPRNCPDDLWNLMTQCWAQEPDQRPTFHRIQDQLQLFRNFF
Protocol: as §1

Ba/F3 cells TPM3-TRKA = biological target: T6, Ba/F3 cells TPM3-TRKA (Homo sapiens, UniProt P04629); experiment: Ba/F3 cell proliferation assay, TPM3-TRKA; assay type: cell-based; settings: 72 hours, CellTiter-Glo, read-out: TPM3-NTRK1-wt IC50
T6 construct: host or cells: Ba/F3 (RIKEN), retroviral pMSCV-puro; the other entry of the earlier key: TPM3 (P06753, Tropomyosin alpha-3 chain)
T6 sequence (P04629 510-796 limits assumed): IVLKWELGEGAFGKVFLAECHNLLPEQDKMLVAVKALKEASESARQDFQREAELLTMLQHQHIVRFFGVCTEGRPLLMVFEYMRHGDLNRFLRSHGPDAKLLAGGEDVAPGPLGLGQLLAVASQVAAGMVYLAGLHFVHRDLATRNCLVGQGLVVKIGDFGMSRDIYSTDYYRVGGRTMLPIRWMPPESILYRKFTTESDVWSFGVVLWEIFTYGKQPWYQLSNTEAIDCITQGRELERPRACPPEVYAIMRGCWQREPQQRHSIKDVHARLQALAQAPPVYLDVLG
From the text: as §2, §3, §4, §5

TRKA-wt = biological target: T7, TRKA-wt (Homo sapiens, UniProt P04629); experiment: Biochemical kinase assay, TRKA-wt kinase domain; settings: apparent inhibitory constant, Morrison equation; ATP 2 mM in substrate solution; read-out: TRKA-wt Ki^app
T7 construct: or TRKA-wt (1 nM, BPS Bio, 40280) kinase domains in buffer; purchased BPS Bio 40280
T7 sequence (P04629 510-781 limits assumed): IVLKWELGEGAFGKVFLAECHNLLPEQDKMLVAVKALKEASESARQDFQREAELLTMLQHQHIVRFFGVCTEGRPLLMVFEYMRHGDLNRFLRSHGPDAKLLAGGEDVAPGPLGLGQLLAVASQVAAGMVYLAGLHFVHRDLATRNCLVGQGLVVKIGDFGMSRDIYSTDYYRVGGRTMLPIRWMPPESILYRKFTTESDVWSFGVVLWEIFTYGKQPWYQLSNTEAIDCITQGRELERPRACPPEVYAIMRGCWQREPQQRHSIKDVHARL
Protocol: as §6

[3] = tested on: TPM3-NTRK1-wt IC50 / primary target IC50 (e.g. CD74-ROS1-wt); experiment: TRKA selectivity in Ba/F3 cells (TRKA potency divided by primary target potency); assay type: cell-based; settings: for TPM3-NTRK1-wt/CD74-ROS1-G2032R selectivity ratio: TRKA potency / CD74-ROS1-G2032R potency; for TPM3-NTRK1-wt/EML4-ALK-L1196M-G1202R selectivity ratio: TRKA potency / EML4-ALK-L1196M-G1202R potency
Protocol: TRKA selectivity was calculated by dividing a compound's TRKA potency by its primary target potency (e.g. TPM3-NTRK1-wt IC50/CD74-ROS1-wt IC50). Compound selectivity can be interpreted by binning ratio values: bin A for very high selectivity, ratio >30-fold; bin B for high selectivity, ratio >10-fold; bin C for moderate selectivity, ratio ≥1; and bin D for low selectivity, ratio <1. […] (nd=not determined).

ALK-wt = biological target: T8, ALK-wt (Homo sapiens, UniProt Q9UM73); experiment: Biochemical kinase assay, ALK-wt kinase domain; settings: apparent inhibitory constant, Morrison equation; ATP 2 mM in substrate solution; read-out: ALK-wt Ki^app
T8 construct: purchased Carna 08-518
T8 sequence (Q9UM73 1116-1392 limits assumed): as the sequence (Q9UM73 1116-1392 L1196M/G1202R limits assumed) above, with M81L, R87G counted along it
Protocol: as §6

[4] = biological target: T9, Ba/F3 cells CD74-ROS1 wild-type (wt) (Homo sapiens, UniProt P08922); experiment: Ba/F3 cell proliferation assay, CD74-ROS1 wild-type; assay type: cell-based; settings: 72 hours, CellTiter-Glo
T9 construct: fusion of the C-terminus of ROS1 with the N-terminus of various partner proteins; host or cells: Ba/F3 (RIKEN), retroviral pMSCV-puro; the other entry of the earlier key: CD74 (P04233, HLA class II histocompatibility antigen gamma chain)
T9 sequence (P08922 1883-2347 limits assumed): as the sequence (P08922 1883-2347 G2032R limits assumed) above, with R150G counted along it
Protocol: as §7, §3, §4, §5

[5] = biological target: T10, Ba/F3 cells EML4-ALK wt (variant 1) (Homo sapiens, UniProt Q9UM73); experiment: Ba/F3 cell proliferation assay, EML4-ALK wt (variant 1); assay type: cell-based; settings: 72 hours, CellTiter-Glo
T10 construct: echinoderm microtubule-associated protein-like 4 (EML4) gene and the ALK tyrosine kinase domain; host or cells: Ba/F3 (RIKEN), retroviral pMSCV-puro; the other entry of the earlier key: EML4 (Q9HC35, Echinoderm microtubule-associated protein-like 4)
T10 sequence (Q9UM73 with tags, fused parts or gaps): as the sequence (Q9UM73 with tags, fused parts or gaps L1196M/G1202R) above, with M635L, R641G counted along it
From the text: as §2, §3, §4, §5

T1 sequence (P08922 1945-2222 G2032R limits assumed): as the sequence (P08922 1945-2222 limits assumed) above, with G88R counted along it

Row | Ki (ROS1-G2032R) [µM] | IC50 [1] [µM] | Ki (ALK L1196M/G1202R) [µM] | IC50 [2] [µM] | Ki (ROS1-wt) [µM] | IC50 (Ba/F3 cells TPM3-TRKA) [µM] | Ki (TRKA-wt) [µM] | Ki (ALK-wt) [µM] | IC50 [4] [µM] | IC50 [5] [µM] | SMILES | TPM3-NTRK1-wt/CD74-ROS1-G2032R selectivity ratio [3] | TPM3-NTRK1-wt/EML4-ALK-L1196M-G1202R selectivity ratio [3] | TPM3-NTRK1-wt/CD74-ROS1-wt selectivity ratio ([3]; TRKA potency / CD74-ROS1-wt potency) | TPM3-NTRK1-wt/EML4-ALK-wt selectivity ratio ([3]; TRKA potency / EML4-ALK-wt potency)
1 | < 0.05 | 0.05 to 0.5 | < 0.05 | 0.0001 to 0.05 | < 0.05 | > 0.5 | > 0.5 | < 0.05 | – | – | CCn1ncc2c1-c1cnc(N)c(c1)O[C@H](C)c1cc(F)ccc1-c1c(F)cnn1C2 [Example 8, (19R)-3-ethyl-11,16-difluoro-19-methyl-20-oxa-3,4,8,9,23-pentaazapentacyclo[19.3.1.0^2,^6.0^8,^12.0^13,^18]pentacosa-1(24),2(6),4,9,11,13,15,17,21(25),22-decaen-22-amine] | A (bin A for very high selectivity, ratio >30-fold) | C (bin C for moderate selectivity, ratio ≥1) | – | –
2 | < 0.05 | 0.05 to 0.5 | < 0.05 | 0.0001 to 0.05 | – | 0.05 to 0.5 | 0.05 to 0.5 | < 0.05 | 0.0001 to 0.05 | 0.0001 to 0.05 | CCn1ncc2c1-c1cnc(N)c(c1)O[C@H](C)c1cc(F)ccc1-c1cc(OC)nn1C2 [Example 89, (19R)-3-ethyl-16-fluoro-10-methoxy-19-methyl-20-oxa-3,4,8,9,23-pentaazapentacyclo[19.3.1.0^2,^6.0^8,^12.0^13,^18]pentacosa 1(24),2(6),4,9,11,13,15,17,21(25),22-decaen-22-amine] | A (bin A for very high selectivity, ratio >30-fold) | D (bin D for low selectivity, ratio <1) | A (bin A for very high selectivity, ratio >30-fold) | B (bin B for high selectivity, ratio >10-fold)
3 | < 0.05 | 0.05 to 0.5 | < 0.05 | – | < 0.05 | > 0.5 | > 0.5 | < 0.05 | – | – | Cc1nn(CC2CC2)c2c1Cc1nn(C)nc1-c1ccc(F)cc1[C@@H](CO)Oc1cc-2cnc1N [Example 96, [(19S)-22-amino-3-(cyclopropylmethyl)-16-fluoro-5,10-hexaazapentacyclo[19.3.1.0^2,^6.0^8,^12.0^13,^18]pentacosa-1(24),2(6),4,8,11,13,15,17,21(25),22-decaen-19-yl]methanol] | – | A (bin A for very high selectivity, ratio >30-fold) | – | –

From patent US12054498B2, “Heteroaromatic macrocyclic ether chemotherapeutic agents” (Nuvalent, Inc., priority 2020, dated 2024)
